The values below come from publication PMC12040169 (PLOS Biology, 2025).

The nature of this data set: in vitro. As to conditions: human, hela cells, % viability.

Broadly, the viability is a read-out of living cells in per cent, often relative to untreated cells. On to `COc1ccc(C2=NN(c3ccccc3)C(c3ccc(OC)c(OC)c3C(=O)O)C2)cc1` (centres unmarked) [CBK262679], for which the viability at 28.5 h, 10 µM was 89.3%.
Same read-out and setting: for `O=C(O)CN(c1cccc([N+](=O)[O-])c1)S(=O)(=O)c1ccccc1` [CBK262684] the value was 85.6%.
Same read-out and setting: as for `O=C(C1CN(S(=O)(=O)c2ccccc2)CCN1S(=O)(=O)c1ccccc1)N1CCCCC1` (centres unmarked) [CBK262686], the figure is 86.4%; as for `O=C1C(=CNCc2ccco2)C(=O)c2ccccc21` [CBK262688], 115%; as for `Cc1cc2c([nH]c3ccccc32)c(C)n1` [CBK262689], 104%.
As for `Cc1ccc(NC(=O)C2CN(S(=O)(=O)c3ccccc3)CCN2S(=O)(=O)c2ccccc2)c(C)c1` (centres unmarked) [CBK262693], the viability at 28.5 h, 10 µM stood at 83.8%.
For the compound `N#CC(C(N)=O)C(c1ccc(Br)cc1)c1c(-c2ccccc2)nn(-c2nc(-c3ccccc3)cs2)c1O` (centres unmarked) [CBK262697], the viability at 28.5 h, 10 µM amounted to 107%.
Still for that read-out and setting: for `COc1ccc(C(C)=O)cc1Cc1c(O)nc(SC)nc1O` [CBK262699] the value was 93.9%; for `CC(C)Oc1ccccc1-c1nnc(SCC(=O)O)[nH]1` [CBK262702], 81.7%.
Still for that read-out and setting: for `Cc1ccc(N(CC(=O)Nc2cccc3ccccc23)S(=O)(=O)c2ccc(F)cc2)cc1` [CBK262707] the value was 94.7%; for `COc1ccc(/C=N/NC(=O)c2ccc(CN3CCOCC3)cc2)cc1[N+](=O)[O-]` [CBK262708], 93%; for `CC(=O)c1c(C)nn2c3ccccc3n(CCN3CCOCC3)c12` [CBK262709C], 115%.
On the same count and under the same terms, for `COc1ccc(/C=C2\S/C(=N\Cc3ccccc3)N(Cc3ccccc3)C2=O)cc1C(=O)O` [CBK262715] the value was 104%.
Consider `O=[N+]([O-])c1ccc2c(c1)C=C1CCCCC1(NCc1ccccc1)O2` (centres unmarked) [CBK262716], for which the viability at 28.5 h, 10 µM is 98.8%.
Regarding `COc1ccc(CCN2C(=O)c3ccccc3C2(O)c2ncc[nH]2)cc1OC` (centres unmarked) [CBK262717], the viability at 28.5 h, 10 µM is 103%.
Turning to `COc1ccccc1NC(=O)CN(c1ccc(C)cc1)S(=O)(=O)c1ccc(F)cc1` [CBK262718], the viability at 28.5 h, 10 µM came out at 91.2%.
Same read-out and setting: for `Cc1[nH]nc(Nc2ccc(C(=O)O)cc2)c1[N+](=O)[O-]` [CBK262726] the value was 80%.
On the same count and under the same terms, for `CN1CCC(=NNC(=O)CN(c2cccc([N+](=O)[O-])c2)S(=O)(=O)c2ccccc2)CC1` [CBK262727] the value was 90.3%; for `CN1CCC(=NNC(=O)c2ccc(CN(c3ccccc3)S(C)(=O)=O)cc2)CC1` [CBK262728], 97.8%; for `COc1ccc(N(CC(=O)O)S(=O)(=O)c2ccccc2[N+](=O)[O-])c(OC)c1` [CBK262729], 92.6%.
Take `O=C(CN1CCOCC1)N/N=C/c1cc2ccccc2nc1Cl` [CBK262732]: the viability at 28.5 h, 10 µM is 101%.
Same read-out and setting: for `COc1cc(Br)c(/C=C(/C#N)C(=O)Nc2ccc(O)cc2)cc1OC` [CBK262733] the value was 79.9%.
As to `CCc1ccc2[nH]c3nc(NN)nnc3c2c1` [CBK262734], the viability at 28.5 h, 10 µM was found to be 65.1%.
On the same count and under the same terms, as for `CCn1cc(C(=O)NN)c(=O)c2cc(F)c(NN)cc21` [CBK262735], the figure is 79.1%.
With `O=C(NNc1c(Cl)cccc1Cl)C(O)(c1ccccc1)c1ccccc1` [CBK262739], the viability at 28.5 h, 10 µM (bulk resorufin, single well) stood at 101%.
For the compound `Cc1ccc(S(=O)(=O)N2/C(=C\COc3ccc(Cl)cc3Cl)C(N3CCOCC3)c3ccccc32)cc1` (centres unmarked) [CBK262740], the viability at 28.5 h, 10 µM worked out at 87.6%.
`O=[N+]([O-])c1ccc(OC/C=C2\Oc3ccc([N+](=O)[O-])cc3C2N2CCOCC2)cc1` (centres unmarked) [CBK262743]: the viability at 28.5 h, 10 µM (bulk resorufin, single well) came to 91.8%.
In the case of `CCCOc1ccc(CCNc2ncnc(N)n2)cc1` [CBK262744], the viability at 28.5 h, 10 µM turned out to be 90.1%.
Still for that read-out and setting: for `CS(=O)(=O)N(Cc1ccccc1)c1ccc(C(=O)Nc2ccccc2Cl)cc1` [CBK262745] the value was 86.9%.
The same measure, in the same setting: as for `Cc1[nH]nc(Nc2ccc(I)cc2)c1[N+](=O)[O-]` [CBK262748], the figure is 86.2%; as for `CN1CCC(=NNC(=O)c2ccc(CN3CCOCC3)cc2)CC1` [CBK262749], 86.6%.
Same read-out and setting: for `CC(C)c1cccc(C(C)C)c1OCCNCCO` [CBK262750] the value was 89.3%; for `COc1ccc(/C=C(/C#N)C(=O)Nc2cccc(C)c2C)cc1C(=O)O` [CBK262751], 87.4%; for `C/C(=N\NC(=O)c1ccc(CN2CCOCC2)cc1)c1ccc2c(c1)OCCO2` [CBK262755], 92%.
For the compound `NCCNc1ccc([N+](=O)[O-])c(NCc2ccccc2)c1` [CBK262757C], the viability at 28.5 h, 10 µM was found to be 83.7%.
Still for that read-out and setting: for `COc1cccc(/C=N/NC(=O)CSc2nnc(C)n2-c2ccccc2)c1O` [CBK262758] the value was 80.7%.
On the same count and under the same terms, as for `O=C(N/N=C\c1ccc(OCc2ccccc2)cc1)C1COc2cc3ccccc3cc2O1` (centres unmarked) [CBK262764], the figure is 95.6%.
As to `CN(C)c1ccc(NC(=O)CC2Nc3ccccc3NC2=O)cc1` (centres unmarked) [CBK262765], the viability at 28.5 h, 10 µM turned out to be 87.1%.
Consider `O=C(O)c1ccccc1-c1ccccc1C(=O)Nc1cccc(-c2nc3ccccc3o2)c1` [CBK262767], for which the viability at 28.5 h, 10 µM amounted to 103%.
Same read-out and setting: as for `Cc1nnc(SCC(=O)N/N=C/c2cc([N+](=O)[O-])ccc2O)n1-c1ccccc1` [CBK262768], the figure is 89.5%.
Still for that read-out and setting: for `O=C(O)CCCCCN1C(=O)/C(=C/c2ccc(O)c(O)c2)SC1=S` [CBK262771] the value was 91%; for `O=c1oc(-c2cccc(F)c2)nc2cc(Cc3ccc4c(=O)oc(-c5cccc(F)c5)nc4c3)ccc12` [CBK262775], 121%.
Consider `O=C(NCC1CCCO1)c1ccc2c(c1)C(=O)N(c1ccccc1-c1ccccc1)C2=O` (centres unmarked) [CBK262777], for which the viability at 28.5 h, 10 µM was 86%.
Consider `COc1ccc(/C=C2\S/C(=N/N=C/c3ccc(OC)cc3)N(c3ccc(O)cc3)C2=O)cc1` [CBK262780], for which the viability at 28.5 h, 10 µM worked out at 87.7%.
Still for that read-out and setting: as for `CCCc1[nH]n(-c2ccc([N+](=O)[O-])cc2)c(=O)c1/C=N/N1CCN(C)CC1` [CBK262781], the figure is 92.8%; as for `Cc1ccc(N2C(=O)c3ccc(S(=O)(=O)c4cccc(C(=O)O)c4)cc3C2=O)c(C)c1` [CBK262783], 86.2%.
As to `O=C(O)CCN1C(=O)/C(=C/c2ccc(C(=O)O)cc2)SC1=S` [CBK262785], the viability at 28.5 h, 10 µM came to 93.2%.
Regarding `O=C(CSc1nnc(-c2ccncc2)n1-c1ccccc1)N/N=C/c1ccccc1O` [CBK262788], the viability at 28.5 h, 10 µM worked out at 85%.
Still for that read-out and setting: for `COc1ccc(/C=N/NC(=O)Cc2cccn2C)cc1[N+](=O)[O-]` [CBK262789] the value was 99.1%.
On to `CC(=O)Nc1ccc(/C=N/NC(=O)c2nnn(-c3nonc3N)c2-c2ccccc2)cc1` [CBK262790], for which the viability at 28.5 h, 10 µM came out at 94.9%.
The same measure, in the same setting: as for `O=C(CSc1nnc(-c2ccccc2)n1-c1ccccc1)N/N=C/c1coc2ccccc2c1=O` [CBK262791], the figure is 97.6%.
Same read-out and setting: as for `Cc1ccc(C(=O)Nc2cccc(-c3nc4ncccc4o3)c2C)cc1[N+](=O)[O-]` [CBK262793], the figure is 94.3%.
Take `O=c1[nH]nc(SCCOc2c(Cl)c(Cl)c(Cl)c(Cl)c2Cl)c(=O)[nH]1` [CBK262794]: the viability at 28.5 h, 10 µM came to 91%.
Take `Cc1ccc(C(=O)O)cc1NC(=O)c1cccc(C(=O)Nc2cc(C(=O)O)ccc2C)c1` [CBK262797]: the viability at 28.5 h, 10 µM stood at 97.5%.
On the same count and under the same terms, as for `O=C(N/N=C/c1c[nH]c2ccc(Br)cc12)c1ccncc1` [CBK262798], the figure is 116%; as for `O=C1/C(=C/c2ccccc2)S/C(=N/N=C/c2ccccc2)N1c1ccc(O)cc1` [CBK262803], 89.6%; as for `COc1ccc(/C(C)=N/NC(=N)SC2CC(=O)N(c3ccc(C(=O)O)cc3)C2=O)cc1F` (centres unmarked) [CBK262805], 107%.
On the same count and under the same terms, for `CC(=O)ON=C1c2cc(S(=O)(=O)N(C)C)ccc2-c2ccc(S(=O)(=O)N(C)C)cc21` [CBK262807] the value was 87.1%; for `Cc1cc(O)cc(O)c1/C=N\NC(=O)C1COc2cc3ccccc3cc2O1` (centres unmarked) [CBK262809], 80.4%; for `O=S(=O)(NCC(c1ccccc1)N1CCNCC1)c1ccccc1` (centres unmarked) [CBK262813], 105%.
Still for that read-out and setting: as for `O=C(N/N=C/c1ccc(Cl)cc1Cl)c1nc(-c2ccccc2)cc(-c2ccccc2)n1` [CBK262814], the figure is 90.1%; as for `Nc1nonc1-n1nnc(C(=O)N/N=C/c2nc3ccccc3[nH]2)c1-c1ccccc1` [CBK262815], 93.8%; as for `O=C(CSc1nnc(-c2ccncc2)n1-c1ccccc1)N/N=C/c1c[nH]c2ccc(Br)cc12` [CBK262816], 91.5%.
As for `O=[N+]([O-])c1ccc(OC(CNS(=O)(=O)c2ccc(Cl)cc2)c2ccccc2)cc1` (centres unmarked) [CBK262817], the viability at 28.5 h, 10 µM was found to be 93%.
Consider `CCOc1ccc(C(=O)Nc2ccc(-c3nc4cc(C)c(C)cc4o3)cc2)cc1[N+](=O)[O-]` [CBK262818], for which the viability at 28.5 h, 10 µM came out at 94.2%.
Regarding `NC(=O)c1c(NC(=O)COc2ccccc2[N+](=O)[O-])sc2c1CCC2` [CBK262819], the viability at 28.5 h, 10 µM turned out to be 105%.
As to `Cc1cc(C(=O)Nc2ccc(-c3nc4ccccc4s3)c(O)c2)ccc1[N+](=O)[O-]` [CBK262820], the viability at 28.5 h, 10 µM stood at 92.6%.
Consider `O=C(CCN1C(=O)/C(=C/c2ccc(F)cc2)SC1=S)NNC(=O)c1ccncc1` [CBK262821], for which the viability at 28.5 h, 10 µM turned out to be 92.4%.
As to `O=C(O)c1ccc(CN2C(=O)c3ccc(C(=O)O)cc3C2=O)cc1` [CBK262823], the viability at 28.5 h, 10 µM was found to be 93.7%.
On the same count and under the same terms, for `COc1cc(Cl)cc(/C=N\NC(=O)C2C(=O)NCC2c2ccccc2)c1O` (centres unmarked) [CBK262825] the value was 91.8%; for `C/C(=N\NC(=O)c1nc(-c2ccccc2)cc(-c2ccccc2)n1)c1ccc(F)cc1` [CBK262826], 110%; for `CC1CCCN(CC(O)COCc2ccc3c(c2)OCO3)C1` (centres unmarked) [CBK262830C], 105%.
The same measure, in the same setting: as for `O=C(N/N=C\c1ccc(-c2ccc(Cl)c(Cl)c2)o1)C1COc2cc3ccccc3cc2O1` (centres unmarked) [CBK262834], the figure is 99%; as for `COc1c(O)ccc(/C=N\NC(=O)C2COc3cc4ccccc4cc3O2)c1[N+](=O)[O-]` (centres unmarked) [CBK262836], 86.9%.
